Test results from patent US20220304945A1, “METHODS OF TREATING METABOLIC SYNDROME RELATED CONDITIONS USING RETINOIC ACID RECEPTOR AGONISTS” (Cornell University, priority 2014, published 2022).
Entries after “also recorded” stand apart in the source; their conditions may differ.

Tests used:
Format in all cases: in vivo, mouse
[1] = tested on: renal stellate cells (RSCs); assay: Double immunofluorescence (vimentin, α-SMA) of renal stellate cells in Db/Db mice; conditions: Db/Db mice treated for 4 weeks
Excerpt: Retinoic Acid Receptor β (RARβ) Agonists Diminish The Activation of Fibrogenic Kidney Stellate Cells. Given that we observed a significant decrease in mRNA transcripts of α-SMA we measured kidney protein expression of α-SMA in fibrogenic renal stellate cells Renal stellate cells (RSCs) are resident kidney fibroblasts, which in response to inflammation undergo differentiation to “activated” myofibroblasts that secrete contractile proteins such as α-SMA. […] RSCs express the mesenchymal protein marker vimentin. We used double immunofluorescence to label RSCs and determine the percentage of activated RSCs expressing the fibrogenic protein α-SMA. Using Db/Db mice, which spontaneously diabetes and DN in a similar manner to humans, we detected more than a 4-fold increase in activated α-SMA positive RSCs compared to wt con mice (FIG. 33F, G). Db/Db mice treated with AC261066 for 4 weeks had more than a 50% reduction in α-SMA positive RSCs (FIG. 33F, G).
METHODS. Immunofluorescence and Immunostaining Microscopy-Paraffin embedded pancreatic tissue sections were incubated with antibodies against: insulin (mouse monoclonal 1:300, #1061, Beta Cell Biology Consortium), vimentin (rabbit polyclonal 1:500, Santa Cruz), or α-SMA (mouse monoclonal, 1:1000, Dako, Inc).

[2] = tested on: SREBP1, FASN, PPAR-α, CPT1-α, MCP-1, TNF-α, α-SMA mRNA; assay: PCR of kidney genes of lipid metabolism, inflammation and fibrosis in HFD, Ob/Ob and Db/Db mice (Example 23)
Method: Quantitative RT-PCR (Q-PCR)-Q-PCR was performed using SYBR Green PCR master mix on a Bio-Rad MyiQ2 Real Time PCR iCycler (Bio-Rad, Inc. Hercules, Calif.). Gene specific primers (Table 5) were used to amplify mRNA target genes, which were normalized to Hprt internal control genes. cDNA from 3-5 mice per experimental group was analyzed for relative mRNA fold changes, calculated using the Pfaffl method (Pfaffl M W, A new mathematical model for relative quantification in real-time RT-PCR, Nucleic Acids Res. 2001 May 1; 29(9):e45). Relative gene expression values are reported as mean±standard error of the mean (S.E.M) and P-values calculated using one-way analysis of variance followed by Bonferroni multiple comparison test post-hoc analysis.
Diabetic kidney disease (aka diabetic nephropathy (DN)) frequently occurs in individuals with type 2 diabetes. The causes of DN are unclear but insulin resistance, hyperlipidemia and obesity are implicated because these states can impair renal lipid metabolism leading to the accumulation of free fatty acids (FFA), which can promote renal inflammation, fibrosis and impaired kidney function. There is evidence that transcriptions factors involved in de novo lipid synthesis such as srebpl contribute to the pathogenesis of DN. […] HF-fed mice treated with AC261066 had no increase in mRNA transcripts of SREBP1 and FASN (FIG. 33A).
We also measured kidney mRNA levels of pro-inflammatory and fibrogenic mediators MCP-1 (aka CCL2), TNF-α, and α-SMA in HFD-fed mice and two genetic mouse models of obesity and diabetes, Ob/Ob and Db/Db mice. MCP-1, TNF-α, and α-SMA are implicated in inflammation and fibrosis in DN and expression of these genes are frequently elevated in models of DN. […] Kidney mRNA transcripts of α-SMA, which contributes to DN fibrosis, was increased 5-6 fold in HFD Ob/Ob and Db/Db mice compared to wt con (FIG. 33D). HFD Ob/Ob and Db/Db mice treated AC261066 had 40-50% reductions in a-SMA transcripts compared to their respective HFD and genetic controls (FIG. 33D).

[3] = tested on: 4-HNE, oxidative stress in the kidneys; assay: 4-HNE staining of kidney, HF-fed mice; conditions: HF diet mice; vs high fat diet group
Excerpt: Mice, diet, and drug treatment. WT male C57/BL6 male mice were maintained on either a standard laboratory chow-fed diet (CFD) with 13% kcal fat, (diet #5053, Lab Diet, Inc, St. Louis, Mo.) or a high fat, western style diet (HFD) with 60% kcals from fat, (diet #58126, Lab Diet, Inc., St. Louis, Mo.) for 4 months. One month after the start of the high fat diet treatment, the high fat diet group was further split into 2 groups for 3 months: i) high fat diet and the drinking water containing 1% DMSO; ii) high fat diet and the drinking water containing 1.5 mg/100 ml AC261066, a specific RARβ agonist. Then mice were sacrificed by cervical dislocation. Blood and various tissue samples were harvested.
4-hydroxynonenal (4-HNE) staining. Paraffin-embedded sections (from two to four mice per group) were deparaffinized and rehydrated, and antigen retrieval was performed using an antigen unmasking solution (Vector Laboratories, H-3300). After quenching endogenous peroxidase with 3% H2O2, the tissue sections were blocked with the blocking reagent (from the M.O.M. kit from Vector Laboratories). Then, tissue sections were incubated with a 4-HNE antibody (1:400; mouse monoclonal antibody; Abcam, ab48506) overnight at 4° C. The sections were then incubated with secondary antibodies (1:200, anti-mouse IgG from the M.O.M kit). […]

[4] = HFD, Ob/Ob and Db/Db mice vs respective untreated

## CCCCOCCOc1nc(-c2ccc(C(=O)O)c(F)c2)sc1C [AC261066]
[1]
  reduction in α-SMA positive RSCs: > 50%
[2]; HF-fed mice
  kidney mRNA transcripts of PPAR-α and CPT1-α, increase vs HFD-fed mice: approximately 2 fold
  kidney mRNA transcripts of SREBP1 and FASN: no increase
[2]; HFD, Ob/Ob and Db/Db mice vs respective controls
  reduction in kidney α-SMA transcripts: 40-50%
[2]; [4]
  reduction in kidney mRNA transcripts of MCP-1: 40-50%
  reduction in kidney mRNA transcripts of TNF-α: 40-50%
[3]
  4-HNE level (oxidative stress, ROS) in kidneys: reduces oxidative stress; also recorded: lower
